# Entries after “also recorded” stand apart in the source; their conditions may differ.
# Experiments:
# spleen cell subsets [1] = assay: Spleen cell subsets of treated BWF1 mice by flow cytometry; type: in vivo, mouse; details: for Frequency of cells ± SEM: CD4+ / Frequency of cells ± SEM: CD8+ / Frequency of cells ± SEM: CD11b^+Ly6C^+Ly6G+ / Frequency of cells ± SEM: CD11b^+Ly6C^+Ly6G− / Frequency of cells ± SEM: CD11b^+MDSC−(Mφ) / Frequency of cells ± SEM: CD11c^+CD11b+(DC) / Frequency of cells ± SEM: CD11c^+CD11b− (DC) / Frequency of cells ± SEM: CD4^+CD25^+Foxp3^+ / Frequency of cells ± SEM: CD19+: spleen, LAQ 25 mg/kg, MMF 100 mg/kg
# [2] = tested on: leukocyte subsets present in kidney; assay: Leukocyte subsets in kidney of treated BWF1 mice by flow cytometry; type: in vivo, mouse; set-up: Frequency of cells ± SEM: CD11c^+CD11b− (DC) / Frequency of cells ± SEM: CD11b^+Ly6C^+Ly6G− / Frequency of cells ± SEM: CD11b^+Ly6C^+Ly6G+ / Frequency of cells ± SEM: CD4+ / Frequency of cells ± SEM: CD8+ / Frequency of cells ± SEM: CD11b^+MDSC−(Mφ) / Frequency of cells ± SEM: CD11c^+CD11b+(DC): unit not given here; details: kidney, LAQ 25 mg/kg, MMF 100 mg/kg; for Frequency of cells ± SEM: CD19+: in % (unit assumed)
# Method: (§1) Single cell suspensions of splenocytes or kidney cells were prepared using cell strainers (Fisher), followed by red blood cell lysis. Kidney lymphocytes were separated from connective tissue by centrifugation (15 minutes at 400g) in 30% Percoll (GE Healthcare). CD4^+CD25^− cells from spleen and kidney were isolated using the CD4^+CD25^+ regulatory T cell isolation kit according to manufacturer's protocol (Miltenyi). CD11b+ cells were isolated using EasySep mouse CD11b positive selection kit (StemCell Technologies), surface stained for Ly6C and Ly6G prior to sorting myeloid-derived suppressor cells (MDSC) using FACSAria II. Populations were >95% pure by FACS analysis.
# (§2) Single-cell suspensions from spleen or kidneys were stained for extracellular markers for 20 min at 4° C. in PBS/1% FBS. Intracellular staining for Foxp3 and cytokines was performed using the Foxp3 Fixation/Permeabilization kit according to the manufacturer's protocol (eBioscience). Cells were acquired on a FACS LSR II (BD) and data was analyzed using Flowjo (Tree Star).
# spleen cell subsets [3] = assay: Spleen cell subsets of treated BWF1 mice by flow cytometry; type: in vivo, mouse
# From the text: Water-gavaged mice constituted the control untreated animals. The spleen cell subsets were identified by the expression of cell surface markers at age 32 weeks as follow: iTregs; nTregs; MΦ: CD11b^−CD103^−; MΦ^2: CD11b^+Ly6C^hiGr-1^−; MΦ^3: CD11b^+Ly6C^intGr-1^−; Gr-1: CD11b ly6C^intGr-1^+; DC: CD11c^+CD103^+; T2: CD19^+CD23^+CD21^+IgM^hi; MZ: CD19^+CD23^−CD21^+IgM^hi. Abbreviations: iTregs=induced T regulatory cells (Tregs). nTregs=natural Tregs. T2=transitional 2 B cells. MZ=marginal zone B cells. MΦ=macrophages. Gr1=granulocytes. Values are mean±SEM. The statistical significance between the groups was determined by analysis of variance (-A-NOVA). ^AP<0.05 versus untreated controls.
# as §1, §2
# patients = details: dose of 2 g daily; dose-dependent; cited from earlier work
# [4] = spleen at age 32 weeks, oral gavage from age 11 weeks, LAQ 25 mg/kg 3 days per week, MMF 100 mg/kg 5 days/week
# [5] = spleen at age 32 weeks, oral gavage from age 11 weeks, LAQ 25 mg/kg 3 days per week, MMF 100 mg/kg 5 days/week, in % (unit assumed)
# [6] = Preventive, 25 weeks after treatment
# [7] = Preventive, 25 weeks after treatment, in % (unit assumed)
# [8] = Therapeutic (PU^lo), 10 wks after initiation of therapy
# [9] = Therapeutic (PU^lo), 10 wks after initiation of therapy, in % (unit assumed)
smiles,measurement,setting,value
"COc1c(C)c2c(c(O)c1C/C=C(\C)CCC(=O)OCCN1CCOCC1)C(=O)OC2 [MMF, mycophenolate mofetil, reference compound]",Numbers of MM (splenic PBMC),"spleen cell subsets [1]; mouse, in vivo",not
same,Frequency of cells ± SEM: CD11b^+CD103^− (MΦ^1),spleen cell subsets [1]; [4],2.26 ± 0.25^A
same,Frequency of cells ± SEM: CD11b^+Ly6C^intGr-1^− (MΦ^3),spleen cell subsets [1]; [4],23.44 ± 1.89
same,Frequency of cells ± SEM: CD11c^+CD103^+ (DC),spleen cell subsets [1]; [4],0.48 ± 0.04^A
same,Frequency of cells ± SEM: CD19^+CD23^+CD21^+IgM^hi (T2),spleen cell subsets [1]; [5],36.56 ± 4.92
same,Frequency of cells ± SEM: CD4+,spleen cell subsets [1]; [6],26.2 ± 1.3
same,Frequency of cells ± SEM: CD8+,spleen cell subsets [1]; [6],12.4 ± 0.9
same,Frequency of cells ± SEM: CD11b^+Ly6C^+Ly6G+,spleen cell subsets [1]; [6],15. ± 1.6
same,Frequency of cells ± SEM: CD11b^+Ly6C^+Ly6G−,spleen cell subsets [1]; [6],33.4 ± 1.8
same,Frequency of cells ± SEM: CD11b^+MDSC−(Mφ),spleen cell subsets [1]; [6],59.3 ± 2.3
same,Frequency of cells ± SEM: CD11c^+CD11b+(DC),spleen cell subsets [1]; [6],1.0 ± 0.1
same,Frequency of cells ± SEM: CD11c^+CD11b− (DC),spleen cell subsets [1]; [6],4.4 ± 0.3
same,Frequency of cells ± SEM: CD4^+CD25^+Foxp3^+,spleen cell subsets [1]; [7],7.9 ± 0.4
same,Frequency of cells ± SEM: CD19+,spleen cell subsets [1]; [7],57.4 ± 3.9
same,Frequency of cells ± SEM: CD4+,spleen cell subsets [1]; [8],20.1 ± 0.7
same,Frequency of cells ± SEM: CD8+,spleen cell subsets [1]; [8],13.5 ± 2.1
same,Frequency of cells ± SEM: CD11b^+Ly6C^+Ly6G+,spleen cell subsets [1]; [8],17.5 ± 2.4
same,Frequency of cells ± SEM: CD11b^+Ly6C^+Ly6G−,spleen cell subsets [1]; [8],30.4 ± 2.7
same,Frequency of cells ± SEM: CD11b^+MDSC−(Mφ),spleen cell subsets [1]; [8],40.5 ± 3.1
same,Frequency of cells ± SEM: CD11c^+CD11b+(DC),spleen cell subsets [1]; [8],0.9 ± 0.2
same,Frequency of cells ± SEM: CD11c^+CD11b− (DC),spleen cell subsets [1]; [8],4.1 ± 0.7
same,Frequency of cells ± SEM: CD4^+CD25^+Foxp3^+,spleen cell subsets [1]; [9],3.2 ± 0.8
same,Frequency of cells ± SEM: CD19+,spleen cell subsets [1]; [9],45.4 ± 3.3
same,Frequency of cells ± SEM: CD4+,[2]; [6],19.4 ± 0.4
same,Frequency of cells ± SEM: CD8+,[2]; [6],8.8 ± 0.1
same,Frequency of cells ± SEM: CD11b^+Ly6C^+Ly6G+,[2]; [6],1.6 ± 0.2
same,Frequency of cells ± SEM: CD11b^+Ly6C^+Ly6G−,[2]; [6],22.9 ± 0.8
same,Frequency of cells ± SEM: CD11b^+MDSC−(Mφ),[2]; [6],49.8 ± 0.7
same,Frequency of cells ± SEM: CD11c^+CD11b+(DC),[2]; [6],1.0 ± 0.1
same,Frequency of cells ± SEM: CD11c^+CD11b− (DC),[2]; [6],4.4 ± 0.3
same,Frequency of cells ± SEM: CD19+,[2]; [6],2.3 ± 0.2
same,Frequency of cells ± SEM: CD4+,[2]; [8],1.0 ± 0.1
same,Frequency of cells ± SEM: CD8+,[2]; [8],6.6 ± 0.2
same,Frequency of cells ± SEM: CD11b^+Ly6C^+Ly6G+,[2]; [8],1.9 ± 0.3
same,Frequency of cells ± SEM: CD11b^+Ly6C^+Ly6G−,[2]; [8],22.4 ± 0.3
same,Frequency of cells ± SEM: CD11b^+MDSC−(Mφ),[2]; [8],45.7 ± 0.9
same,Frequency of cells ± SEM: CD11c^+CD11b+(DC),[2]; [8],0.6 ± 0.0
same,Frequency of cells ± SEM: CD11c^+CD11b− (DC),[2]; [8],1.3 ± 0.1
same,Frequency of cells ± SEM: CD19+,[2]; [8],7.2 ± 0.4
same,Percentage of CD8^+ cells in spleen,spleen cell subsets [3]; compared to the control mice,decreased; also recorded: reduced
same,Frequency of cells ± SEM: CD11b^+Ly6C^hiGr-1^− (MΦ^2),spleen cell subsets [3]; [4],11.81 ± 1.58
same,Frequency of cells ± SEM: CD11b^+Ly6C^intGr-1^+ (Gr-1),spleen cell subsets [3]; [4],25.01 ± 5.32
same,Frequency of cells ± SEM: CD 19^+,spleen cell subsets [3]; [5],57.38 ± 3.89
same,Frequency of cells ± SEM: CD19^+CD23^−CD21^+IgM^hi (MZ),spleen cell subsets [3]; [5],3.78 ± 0.99
same,Percentage of CD4^+ T cells in spleen,spleen cell subsets [3]; vs control mice,decreased; also recorded: significantly lower percentage
same,Patients with gastrointestinal side effects,patients,up to 20%

# — patent US20130345257A1, “COMPOSITION FOR LUPUS NEPHRITIS AND METHODS OF MAKING AND USING THE SAME” (The Regents of the University of California, priority 2012, published 2013)
